Source: patent publication US12172983B2, “EGFR inhibitors” (Blueprint Medicines Corporation, priority 2019, dated 2024)

Legend:
[1] = test system: phosphorylation of EGFR (Tyr1068) in NCI-H1975 cell line that harbors the EGFR L858R T790M mutations; assay: NCI-H1975 pEGFR AlphaLISA assay; type: cell-based; details: Homo sapiens, NCI-H1975, inhibition of phosphorylation of mutant EGFR in NCI-H1975 cells; 4-5 hours incubation; read-out: Ext pEGFR H1975
How it was run: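 NCI-H1975 cells (EGFR L858R/T790M) seeded overnight, then treated with compound for 4-5 h at 37 °C/5% CO2. After lysis, p-EGFR (Tyr1068) quantified by AlphaLISA SureFire Ultra with acceptor then donor beads; IC50 fitted from percent inhibition versus log concentration.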

[2] = target: T1, EGFR (L858R T790M C797S) (Homo sapiens, UniProt P00533, C797S/L858R/T790M); assay: Biochemical EGFR inhibition assay (Caliper mobility shift), EGFR LRTMCS mutant; details: inhibitory activity against EGFR LRTMCS mutant; apparent IC50; read-out: Ext Enz LRTMCS
T1 construct: purchased SignalChem E10-122VG
How it was run: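 Each enzyme was allowed to phosphorylate 10–20% of its peptide at 25° C. before EDTA (35 mM) quench. Separated substrate and product peaks were measured by mobility shift, giving apparent IC50 values.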

T1 sequence (P00533 25-1210 T790M/C797S/L858R): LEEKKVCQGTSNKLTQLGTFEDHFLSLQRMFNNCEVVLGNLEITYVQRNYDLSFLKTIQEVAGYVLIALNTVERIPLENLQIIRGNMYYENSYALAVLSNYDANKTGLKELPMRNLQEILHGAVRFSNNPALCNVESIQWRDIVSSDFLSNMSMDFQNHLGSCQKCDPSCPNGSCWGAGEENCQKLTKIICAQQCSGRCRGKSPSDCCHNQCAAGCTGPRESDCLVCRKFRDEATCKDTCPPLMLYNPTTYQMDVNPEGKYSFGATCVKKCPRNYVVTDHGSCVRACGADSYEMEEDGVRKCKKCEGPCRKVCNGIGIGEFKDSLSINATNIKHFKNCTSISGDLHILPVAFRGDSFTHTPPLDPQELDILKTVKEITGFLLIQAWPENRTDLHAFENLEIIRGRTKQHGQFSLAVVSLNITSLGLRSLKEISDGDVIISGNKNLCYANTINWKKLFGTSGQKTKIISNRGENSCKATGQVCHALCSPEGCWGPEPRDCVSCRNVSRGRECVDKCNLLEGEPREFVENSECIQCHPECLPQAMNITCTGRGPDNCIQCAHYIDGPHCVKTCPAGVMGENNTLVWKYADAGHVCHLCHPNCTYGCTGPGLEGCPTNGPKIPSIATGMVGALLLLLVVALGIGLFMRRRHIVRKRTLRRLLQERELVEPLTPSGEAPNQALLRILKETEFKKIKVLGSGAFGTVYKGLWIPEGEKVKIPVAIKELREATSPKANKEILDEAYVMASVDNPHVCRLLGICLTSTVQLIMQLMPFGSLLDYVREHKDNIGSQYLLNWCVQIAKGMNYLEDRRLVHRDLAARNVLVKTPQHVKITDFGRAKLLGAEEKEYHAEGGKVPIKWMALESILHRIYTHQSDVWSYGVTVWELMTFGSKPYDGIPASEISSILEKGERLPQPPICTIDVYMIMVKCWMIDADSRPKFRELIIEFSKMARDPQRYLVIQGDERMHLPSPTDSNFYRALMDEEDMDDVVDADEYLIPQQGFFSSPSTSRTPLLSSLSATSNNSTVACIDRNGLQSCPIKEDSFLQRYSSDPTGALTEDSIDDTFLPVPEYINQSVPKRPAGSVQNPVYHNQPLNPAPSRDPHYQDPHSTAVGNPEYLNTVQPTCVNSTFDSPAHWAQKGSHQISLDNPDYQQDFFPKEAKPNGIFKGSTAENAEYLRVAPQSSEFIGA

SMILES	IC50 [1] [nM]	IC50 [2] [nM]
CC(C)c1ccc(N2C[C@H](CS(C)(=O)=O)[C@H]2C)c2cnc(Nc3ccnc(N4CC[C@@](C)(O)[C@H](O)C4)n3)cc12 (single isomer, unassigned) [Compound 102, (3R,4R)-1-[4-({8-[(2R,3S)-3-(methanesulfonylmethyl)-2-methylazetidin-1-yl]-5-(propan-2-yl)isoquinolin-3-yl}amino)pyrimidin-2-yl]-4-methylpiperidine-3,4-diol or (3S,4S)-1-[4-({8-[(2R,3S)-3-(methanesulfonylmethyl)-2-methylazetidin-1-yl]-5-(propan-2-yl)isoquinolin-3-yl}amino)pyrimidin-2-yl]-4-methylpiperidine-3,4-diol]	20.1 to 30	≤ 15
CO[C@H]1CCN(c2nccc(Nc3cc4c(C(C)C)ncc(N5C[C@H](CS(C)(=O)=O)[C@H]5C)c4cn3)n2)C[C@H]1F [Compound 140, N-{2-[(3R,4S)-3-fluoro-4-methoxypiperidin-1-yl]pyrimidin-4-yl}-8-[(2R,3S)-3-(methanesulfonylmethyl)-2-methylazetidin-1-yl]-5-(propan-2-yl)-2,6-naphthyridin-3-amine]	≤ 10	≤ 15
CCS(=O)(=O)C[C@H]1CN(c2ccc(C(C)C)c3cc(Nc4ccnc(N5CC[C@@H](OC)[C@@H](O)C5)n4)ncc23)[C@@H]1C (single isomer, unassigned) [Compound 176, (3S,4R)-1-[4-({8-[(2R,3S)-3-[(ethanesulfonyl)methyl]-2-methylazetidin-1-yl]-5-(propan-2-yl)isoquinolin-3-yl}amino)pyrimidin-2-yl]-4-methoxypiperidin-3-ol, or (3R,4S)-1-[4-({8-[(2R,3S)-3-[(ethanesulfonyl)methyl]-2-methylazetidin-1-yl]-5-(propan-2-yl)isoquinolin-3-yl}amino)pyrimidin-2-yl]-4-methoxypiperidin-3-ol]	≤ 10	≤ 15
CC(C)c1ncc(N2C[C@H](CS(C)(=O)=O)[C@H]2C)c2cnc(Nc3ccnc(N4CC[C@@](C)(O)[C@@H](F)C4)n3)cc12 (single isomer, unassigned) [Compound 138]	≤ 10	≤ 15
CCS(=O)(=O)CC1CN(c2ccc(C)c3cc(Nc4ccnc(N5CC[C@@H](O)[C@@](C)(F)C5)n4)ncc23)C1 (single isomer, unassigned) [Compound 25]	30.1 to 50	≤ 15
[2H]C([2H])([2H])O[C@@H]1CCN(c2nccc(Nc3cc4c(C(C)C)ncc(N5C[C@H](CS(C)(=O)=O)[C@H]5C)c4cn3)n2)C[C@@H]1F (single isomer, unassigned) [Compound 161, N-{2-[(3S,4R)-3-fluoro-4-(^2H3)methoxypiperidin-1-yl]pyrimidin-4-yl}-8-[(2R,3S)-3-(methanesulfonylmethyl)-2-methylazetidin-1-yl]-5-(propan-2-yl)-2,6-naphthyridin-3-amine or N-{2-[(3R,4S)-3-fluoro-4-(^2H3)methoxypiperidin-1-yl]pyrimidin-4-yl}-8-[(2R,3S)-3-(methanesulrfonylmethyl)-2-methylazetidin-1-yl]-5-(propan-2-yl)-2,6-naphthyridin-3-amine]	≤ 10	≤ 15
CN[C@H]1CCN(c2nccc(Nc3cc4c(C(C)C)ccc(N5C[C@H](CS(C)(=O)=O)[C@H]5C)c4cn3)n2)C[C@H]1F (single isomer, unassigned) [Compound 306, N-{2-[(3R,4S)-3-fluoro-4-(methylamino)piperidin-1-yl]pyrimidin-4-yl}-8-[(2R,3S)-3-(methanesulfonylmethyl)-2-methylazetidin-1-yl]-5-(propan-2-yl)isoquinolin-3-amine or N-{2-[(3S,4R)-3-fluoro-4-(methylamino)piperidin-1-yl]pyrimidin-4-yl}-8-[(2R,3S)-3-(methanesulfonylmethyl)-2-methylazetidin-1-yl]-5-(propan-2-yl)isoquinolin-3-amine]	20.1 to 30	20.1 to 30
CC(C)c1ccc(N2CC(C)(CS(C)(=O)=O)C2)c2cnc(Nc3ccnc(N4CC[C@@H](O)[C@@](C)(F)C4)n3)cc12 (single isomer, unassigned) [Compound 112]	10.1 to 20	≤ 15
CC(C)c1ccc(N2C[C@H](CS(C)(=O)=O)[C@H]2C)c2cnc(Nc3ccnc(N4CC[C@@H](OCCO)[C@@](C)(F)C4)n3)cc12 (single isomer, unassigned) [Compound 242]	≤ 10	≤ 15
CCS(=O)(=O)CC1CN(c2ccc(OC)c3cc(Nc4ccnc(N5CC[C@@H](O)[C@@](C)(F)C5)n4)ncc23)C1 (single isomer, unassigned) [Compound 77]	30.1 to 50	15.1 to 20
CO[C@@H]1CCN(c2nccc(Nc3cc4c(C(C)C)ncc(N5CC(CS(C)(=O)=O)C5)c4cn3)n2)C[C@@H]1F [Compound 74, N-{2-[(3S,4R)-3-fluoro-4-methoxypiperidin-1-yl]pyrimidin-4-yl}-8-[3-(methanesulfonylmethyl)azetidin-1-yl]-5-(propan-2-yl)-2,6-naphthyridin-3-amine]	≤ 10	≤ 15
CCS(=O)(=O)CC1CN(c2ccc(C(C)C)c3cc(Nc4cnnc(N5CC[C@H](OC)[C@H](F)C5)n4)ncc23)C1 [Compound 281, 8-{3-[(ethanesulfonyl)methyl]azetidin-1-yl}-N-{3-[(3R,4S)-3-fluoro-4-methoxypiperidin-1-yl]-1,2,4-triazin-5-yl}-5-(propan-2-yl)isoquinolin-3-amine]	≤ 10	≤ 15

Results, then the molecule that gave them:

IC50 [1] [nM]	IC50 [2] [nM]	SMILES
≤ 10	15.1 to 20	CO[C@@H]1[C@H](F)CN(c2nccc(Nc3cc4c(C(C)C)ccc(N5C[C@H](CS(C)(=O)=O)[C@H]5C)c4cn3)n2)C[C@@H]1O (racemic) [Compound 198, (3R,4R,5S)-5-fluoro-1-(4-((5-isopropyl-8-((2R,3S)-2-methyl-3-((methylsulfonyl)methyl)azetidin-1-yl)isoquinolin-3-yl)amino)pyrimidin-2-yl)-4-methoxypiperidin-3-ol and (3S,4S,5R)-5-fluoro-1-(4-((5-isopropyl-8-((2R,3S)-2-methyl-3-((methylsulfonyl)methyl)azetidin-1-yl)isoquinolin-3-yl)amino)pyrimidin-2-yl)-4-methoxypiperidin-3-ol]
≤ 10	≤ 15	CO[C@@H]1[C@H](O)CN(c2nccc(Nc3cc4c(C(C)C)ccc(N5CC(CS(C)(=O)=O)C5)c4cn3)n2)CC1(F)F (single isomer, unassigned) [Compound 218, rac-5,5-difluoro-1-[4-[[5-isopropyl-8-[3-(methylsulfonylmethyl)azetidin-1-yl]-3-isoquinolyl]amino]pyrimidin-2-yl]-4-methoxy-piperidin-3-ol]
≤ 10	≤ 15	CNCCO[C@@H]1CCN(c2nccc(Nc3cc4c(C(C)C)ccc(N5C[C@H](CS(C)(=O)=O)[C@H]5C)c4cn3)n2)CC1(F)F (single isomer, unassigned) [Compound 300, N-{2-[(4R)-3,3-difluoro-4-[2-(methylamino)ethoxy]piperidin-1-yl]pyrimidin-4-yl}-8-[(2R,3S)-3-(methanesulfonylmethyl)-2-methylazetidin-1-yl]-5-(propan-2-yl)isoquinolin-3-amine or N-{2-[(4S)-3,3-difluoro-4-[2-(methylamino)ethoxy]piperidin-1-yl]pyrimidin-4-yl}-8-[(2R,3S)-3-(methanesulfonylmethyl)-2-methylazetidin-1-yl]-5-(propan-2-yl)isoquinolin-3-amine]
≤ 10	≤ 15	[2H]C([2H])([2H])O[C@@H]1CCN(c2nccc(Nc3cc4c(C(C)C)ccc(N5CC(CS(C)(=O)=O)C5)c4cn3)n2)C[C@@H]1F (single isomer, unassigned) [Compound 82]
≤ 10	15.1 to 20	CN[C@H]1CCN(c2nccc(Nc3cc4c(C(C)C)ccc(N5C[C@H](CS(C)(=O)=O)[C@H]5C)c4cn3)n2)CC1(F)F (single isomer, unassigned) [Compound 309, N-{2-[(4S)-3,3-difluoro-4-(methylamino)piperidin-1-yl]pyrimidin-4-yl}-8-[(2R,3S)-3-(methanesulfonylmethyl)-2-methylazetidin-1-yl]-5-(propan-2-yl)isoquinolin-3-amine or N-{2-[(4R)-3,3-difluoro-4-(methylamino)piperidin-1-yl]pyrimidin-4-yl}-8-[(2R,3S)-3-(methanesulfonylmethyl)-2-methylazetidin-1-yl]-5-(propan-2-yl)isoquinolin-3-amine]
10.1 to 20	≤ 15	CC(C)c1ccc(N2CC(CS(C)(=O)=O)C2)c2cnc(Nc3ccnc(N4CC[C@](C)(O)C(F)(F)C4)n3)cc12 (single isomer, unassigned) [Compound 153, (4S)-3,3-difluoro-1-[4-({8-[3-(methanesulfonylmethyl)azetidin-1-yl]-5-(propan-2-yl)isoquinolin-3-yl}amino)pyrimidin-2-yl]-4-methylpiperidin-4-ol or (4R)-3,3-difluoro-1-[4-({8-[3-(methanesulfonylmethyl)azetidin-1-yl]-5-(propan-2-yl)isoquinolin-3-yl}amino)pyrimidin-2-yl]-4-methylpiperidin-4-ol]
≤ 10	≤ 15	CC(C)c1ccc(N2CC(CS(C)(=O)=O)C2)c2cnc(Nc3ccnc(N4CC[C@H](OCCO)[C@H](F)C4)n3)cc12 [Compound 290, 2-{[(3R,4S)-3-fluoro-1-[4-({8-[3-(methanesulfonylmethyl)azetidin-1-yl]-5-(propan-2-yl)isoquinolin-3-yl}amino)pyrimidin-2-yl]piperidin-4-yl]oxy}ethan-1-ol]
